ChEMBL document CHEMBL4371081, “The role of N-terminal heterocycles in hydrogen bonding to α-chymotrypsin” (Bioorg Med Chem Lett, 2019)
Activity calls are given as the source filed them. The rule behind the calls is not given here. Where a SMILES comes first, the peptide text is derived from it. [ ]: non-standard residue; d: D form. The star is where a group is joined. ξ: configuration not given here. Phe(ol) = N[C@H](CO)Cc1ccccc1; ξF = NC(Cc1ccccc1)C(=O)O; Boc = CC(C)(C)OC(=O)*

species on record: Homo sapiens; test: Inhibition of alpha-chymotrypsin (unknown origin) at 500 uM using Ala-Ala-Phe-7-AMC as substrate measured over 10 mins by spectrophotometric method

| inhibition | SMILES |
| --- | --- |
| inactive | CCOC(=O)c1ccc(C(=O)N[C@@H](CC(C)C)C(=O)N[C@H](CO)Cc2ccccc2)o1 |
| inactive | COC(=O)c1cccc(C(=O)N[C@@H](CC(C)C)C(=O)N[C@H](CO)Cc2ccccc2)n1 |
| inactive | CC(C)C[C@H](NC(=O)[C@H](C)NC(=O)OC(C)(C)C)C(=O)N[C@H](CO)Cc1ccccc1 (Boc-Ala-Leu-[Phe(ol)]) |
| inactive | COC(=O)c1ccc(C(=O)N[C@@H](CC(C)C)C(=O)N[C@H](CO)Cc2ccccc2)s1 |
| inactive | COC(=O)c1ccc(C(=O)N[C@@H](CC(C)C)C(=O)N[C@H](CO)Cc2ccccc2)[nH]1 |
| inactive | COC(=O)c1ccc(C(=O)N[C@@H](CC(C)C)C(=O)N[C@H](CO)Cc2ccccc2)o1 |

test system: not listed separately; test: Inhibition of alpha-chymotrypsin (unknown origin) using Ala-Ala-Phe-7-AMC as substrate measured over 10 mins by spectrophotometric method; set-up: species or system Homo sapiens

| IC50 [µM] | SMILES |
| --- | --- |
| 36 | COC(=O)c1ccc(C(=O)N[C@@H](CC(C)C)C(=O)NC(C=O)Cc2ccccc2)o1 (mixture of isomers) |
| 1.1 | COC(=O)c1ccc(C(=O)N[C@@H](CC(C)C)C(=O)NC(C=O)Cc2ccccc2)[nH]1 (mixture of isomers) |
| 1.4 | CC(C)C[C@H](NC(=O)[C@H](C)NC(=O)OC(C)(C)C)C(=O)NC(C=O)Cc1ccccc1 (stereo partly drawn) (Boc-Ala-Leu-[ξF]-aldehyde) |
| 35 | COC(=O)c1cccc(C(=O)N[C@@H](CC(C)C)C(=O)NC(C=O)Cc2ccccc2)n1 (stereo partly specified) |
| 40 | COC(=O)c1ccc(C(=O)N[C@@H](CC(C)C)C(=O)NC(C=O)Cc2ccccc2)s1 (mixture of isomers) |
